The test system of one data set is mice. More on the design: method as in PMID 32602352. The following applies: cited from earlier work.
Data set [1] has as its system C2O4^2− transport, MDCK cells. As to the kind of experiment: In vitro litholytic activity: C2O4^2− transport inhibition, Transwell chamber with MDCK cells. It is filed as cell-based, canine. The following applies: Canis lupus familiaris; 100 μmol/L, MDCK cells in Transwell; mean ± SD of three replicates; read-out: Transport Inhibition Rate (%) C2O4^2−. In outline: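 MDCK monolayers in Transwell upper chamber, used once resistance ≥300 Ω cm^2, treated 24 h with compounds at 100 μmol/L or saline. CaC2O4 (30 mmol/L) then added above, PBS below; lower-chamber Ca^2+ and C2O4^2− measured by kit at 0.5, 1, 2, 3 h, inhibition rate from OD versus blank.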

Data set [2] relates to Ca^2+ transport, MDCK cells. As to the kind of experiment: In vitro litholytic activity: Ca^2+ transport inhibition, Transwell chamber with MDCK cells. Type of data set: cell-based, canine. Conditions: Canis lupus familiaris, 100 μmol/L, mean ± SD of three replicates, read-out: Transport Inhibition Rate (%) Ca^2+.
In another data set the test system is MDCK cells. The data set can be described thus: MTT cytotoxicity assay on MDCK cells. The following applies: Canis lupus familiaris, 100 μmol/L, 24 h, mean ± SD of three replicates, read-out: Growth Inhibition Rate (%). Type of data set: cell-based, canine. In outline: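 MDCK cells at 10^4/well, grown 24 h, exposed 24 h to compound at 100 μmol/L (saline control; hydrochlorothiazide 100 μmol/L reference). MTT 4 h, DMSO solubilization, OD 490 nm; growth inhibition % = (ODblank − ODexperimental)/ODblank × 100.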
On the technique in general: Formazan colour is commonly taken as a measure of viable cells.

The subject of data set [3] is Na^+ transport, MDCK cells. The data set can be described thus: In vitro diuretic activity: Na^+ transport inhibition, Transwell chamber seeded with MDCK cells. The following applies: 100 μmol/L, MDCK cells in Transwell, mean ± SD of three replicates, negative = promotion; for inhibition at 100 µM: Canis lupus familiaris, MDCK, read-out: Transport Inhibition Rate (%) Na^+. It is filed as cell-based, canine. In short, it runs like this:
(§1)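 MDCK monolayers on Transwell inserts (resistance ≥300 Ω cm^2) exposed apically to compounds at 100 μmol/L for 24 h. Then 15 mg/mL NaCl added to upper chamber; Na^+ and Cl^− in lower fluid measured by kit OD at 0.5, 1, 2 and 3 h. Inhibition % = (ODblank − ODexperimental)/ODblank × 100, blank = normal saline.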

The subject of data set [4] is Cl^− transport, MDCK cells. As to the kind of experiment: In vitro diuretic activity: Cl^− transport inhibition, Transwell chamber seeded with MDCK cells. It is filed as cell-based, canine. The following applies: Canis lupus familiaris; 100 μmol/L, MDCK cells in Transwell; mean ± SD of three replicates; negative = promotion; read-out: Transport Inhibition Rate (%) Cl^−. In outline:
as §1

The text below walks through data of publication PMC10222548, “Semisynthesis, Biological Evaluation and Molecular Docking Studies of Barbatic Acid Derivatives as Novel Diuretic Candidates” (Molecules, 2023).

A value given as a limit tells only on which side of the number the result lay.

By inhibition is commonly meant the relative decrease from the control value, in per cent. In the case of `COc1cc(C)c(C(=O)Oc2cc(C)c(C(=O)O)c(O)c2C)c(O)c1C` [Compound 1, Barbatic acid], the “diuretic effect on mice” value in the data set on mice is on record as “had a diuretic effect on mice”. The inhibition at 100 µM in data set [1] was 2.97 ± 2.21%; in data set [2], 8.8 ± 0.18%; in the data set on MDCK cells it was under 0%; in data set [3], 12.3 ± 0.5%; in data set [4] it was 2.34 ± 1.2%.
Broadly, the melting point is the temperature, or range, at which the solid turns liquid. The compound `CCCOc1cc(C)c(C(=O)Oc2cc(C)c(C(=O)OC(C)C)c(O)c2C)c(O)c1C` [Compound 6t, 3-hydroxy-4-(isopropoxycarbonyl)-2,5-dimethylphenyl 2-hydroxy-3,6-dimethyl-4-propoxybenzoate] yielded a melting point of 112 to 115 °C. Further, in data set [1], the inhibition at 100 µM amounted to 11.9 ± 5.83%. Moreover, the inhibition at 100 µM in data set [2] was -1.74 ± 0.29%. Also, the inhibition at 100 µM with MDCK cells is 1.42%. Moreover, the inhibition at 100 µM in data set [3] was -37.6 ± 0.55%. For the same compound, the inhibition at 100 µM in data set [4] is -44.1 ± 3.5%.
Regarding `CCCOc1cc(C)c(C(=O)Oc2cc(C)c(C(=O)OCc3ccccc3)c(O)c2C)c(O)c1C` [Compound 6u, benzyl 2-hydroxy-4-(2-hydroxy-3,6-dimethyl-4-propoxybenzoyloxy)-3,6-dimethylbenzoate], the melting point was 111 to 114 °C. Also, in data set [1], the inhibition at 100 µM was determined as 22.3 ± 5.04%. For the same compound, the inhibition at 100 µM in data set [2] is 0.77 ± 0.09%. For the same compound, the inhibition at 100 µM in the data set on MDCK cells was under 0%. The inhibition at 100 µM in data set [3] is 6.31 ± 2.35%. Besides, in data set [4], the inhibition at 100 µM was -15.9 ± 0.55%.
Turning to `COC(=O)c1c(C)cc(OC(=O)c2c(C)cc(OC(C)C)c(C)c2O)c(C)c1O` [Compound 6v, 3-hydroxy-4-(methoxycarbonyl)-2,5-dimethylphenyl 2-hydroxy-4-isopropoxy-3,6-dimethylbenzoate], the melting point is 60 to 63 °C. Also, the inhibition at 100 µM in data set [1] is -17.9 ± 1.35%. Also, in data set [2], the inhibition at 100 µM is 0.19 ± 0.29%. The inhibition at 100 µM with MDCK cells is under 0%. Also, in data set [3], the inhibition at 100 µM was -9.43 ± 0.75%. Also, in data set [4], the inhibition at 100 µM was -13.55 ± 0.1%.
Compound `CCOC(=O)c1c(C)cc(OC(=O)c2c(C)cc(OC(C)C)c(C)c2O)c(C)c1O` [Compound 6w, 4-(ethoxycarbonyl)-3-hydroxy-2,5-dimethylphenyl 2-hydroxy-4-isopropoxy-3,6-dimethylbenzoate] gave a melting point of 62 to 65 °C. The inhibition at 100 µM in data set [1] turned out to be 19 ± 2.64%. Moreover, in data set [2], the inhibition at 100 µM is 1.55 ± 0.11%. For the same compound, the inhibition at 100 µM with MDCK cells turned out to be 0.7 ± 0.3%. Further, in data set [3], the “Transport Inhibition Rate (%) Na^+” value came out at 33.11 ± 0.55% and the inhibition at 100 µM was over 30%. The inhibition at 100 µM in data set [4] was -80.4 ± 1.2%.
With `CCCOC(=O)c1c(C)cc(OC(=O)c2c(C)cc(OC(C)C)c(C)c2O)c(C)c1O` [Compound 6x, 3-hydroxy-2,5-dimethyl-4-(propoxycarbonyl)phenyl 2-hydroxy-4-isopropoxy-3,6-dimethylbenzoate], the melting point was in the range of 117 to 120 °C. Further, the inhibition at 100 µM in data set [1] was -5.42 ± 2.83%. Moreover, the inhibition at 100 µM in data set [2] came out at 2.74 ± 0.22%. The inhibition at 100 µM with MDCK cells was under 0%. The inhibition at 100 µM in data set [3] was -1.11 ± 1.75%. The inhibition at 100 µM in data set [4] was -1.92 ± 0.25%.
For the compound `Cc1cc(OC(=O)c2c(C)cc(OC(C)C)c(C)c2O)c(C)c(O)c1C(=O)OC(C)C` [Compound 6y, 3-hydroxy-4-(isopropoxycarbonyl)-2,5-dimethylphenyl 2-hydroxy-4-isopropoxy-3,6-dimethylbenzoate], the melting point fell in the range of 140 to 143 °C. Also, the inhibition at 100 µM in data set [1] was -26.3 ± 5.41%. For the same compound, in data set [2], the inhibition at 100 µM amounted to 3.47 ± 0.3%. Besides, the inhibition at 100 µM in the data set on MDCK cells is under 0%. In addition, the inhibition at 100 µM in data set [3] came to 29.4 ± 1.85%. Further, the inhibition at 100 µM in data set [4] was -43.3 ± 3.25%.
For the compound `C=CCOC(=O)c1c(C)cc(OC(=O)c2c(C)cc(OC(C)C)c(C)c2O)c(C)c1O` [Compound 6z, allyl 2-hydroxy-4-(2-hydroxy-4-isopropoxy-3,6-dimethylbenzoyloxy)-3,6-dimethylbenzoate], the melting point lay in the range of 111 to 114 °C. Besides, in data set [1], the inhibition at 100 µM stood at 0.23 ± 2.16%. Besides, the inhibition at 100 µM in data set [2] was -2.56 ± 0.17%. For the same compound, the inhibition at 100 µM with MDCK cells was determined as 2.47 ± 0.5%. Besides, in data set [3], the inhibition at 100 µM was -22.7 ± 1.05%. In data set [4], the inhibition at 100 µM is -32.6 ± 3.1%.
